In patent publication US20240277620A1, “MIXED SOLVENTS FOR SPRAY DRYING FOR PREPARATION OF AMORPHOUS SOLID DISPERSIONS” (Lonza Bend Inc., priority 2021, published 2024):
Several values for one entry are separate records, joined by “and”; a condition that tells them apart may be missing. Equal entries are not always repeated.

Experiment: Determination of saturation concentration of drug in solvent (TGA of filtered saturated solution)

Cc1cn(-c2cc(NC(=O)c3ccc(C)c(Nc4nccc(-c5cccnc5)n4)c3)cc(C(F)(F)F)c2)cn1 [Nilotinib, nilotinib]
Concentration (EtOAc:EtOH 0:100, 25° C.): 1.69 mg/mL | Concentration (wt %) (EtOAc:EtOH 0:100, 25° C.): 0.214 wt % | Concentration (EtOAc:EtOH 15:85, 25° C.): 2.38 mg/mL | Concentration (wt %) (EtOAc:EtOH 15:85, 25° C.): 0.30 wt % | Concentration (EtOAc:EtOH 40:60, 25° C.): 3.40 mg/mL | Concentration (wt %) (EtOAc:EtOH 40:60, 25° C.): 0.408 wt % | Concentration (EtOAc:EtOH 55:45, 25° C.): 4.69 mg/mL | Concentration (wt %) (EtOAc:EtOH 55:45, 25° C.): 0.518 wt % | Concentration (EtOAc:EtOH 70:30, 25° C.): 3.39 mg/mL | Concentration (wt %) (EtOAc:EtOH 70:30, 25° C.): 0.392 wt % | Concentration (EtOAc:EtOH 85:15, 25° C.): 2.03 mg/mL | Concentration (wt %) (EtOAc:EtOH 85:15, 25° C.): 0.230 wt % | Concentration (EtOAc:EtOH 100:0, 25° C.): 0.69 mg/mL | Concentration (wt %) (EtOAc:EtOH 100:0, 25° C.): 0.076 wt % | Solubility (wt %) (MeOAc/MeOH, MeOH 0 wt %): 0.091 wt % | Solubility (wt %) (MeOAc/MeOH, MeOH 15 wt %): 0.496 wt % | Solubility (wt %) (MeOAc/MeOH, MeOH 30 wt %): 0.763 wt % | Solubility (wt %) (MeOAc/MeOH, MeOH 45 wt %): 0.962 wt % | Solubility (wt %) (MeOAc/MeOH, MeOH 60 wt %): 0.868 wt % | Solubility (wt %) (MeOAc/MeOH, MeOH 85 wt %): 0.486 wt % | Solubility (wt %) (MeOAc/MeOH, MeOH 100 wt %): 0.371 wt % | Concentration (MeOAc:MeOH 0:100, 25° C.): 2.94 mg/mL | Concentration (wt %) (MeOAc:MeOH 0:100, 25° C.): 0.371 wt % | Concentration (MeOAc:MeOH 15:85, 25° C.): 3.94 mg/mL | Concentration (wt %) (MeOAc:MeOH 15:85, 25° C.): 0.486 wt % | Concentration (MeOAc:MeOH 40:60, 25° C.): 7.32 mg/mL | Concentration (wt %) (MeOAc:MeOH 40:60, 25° C.): 0.868 wt % | Concentration (MeOAc:MeOH 55:45, 25° C.): 8.31 mg/mL | Concentration (wt %) (MeOAc:MeOH 55:45, 25° C.): 0.961 wt % | Concentration (MeOAc:MeOH 70:30, 25° C.): 6.76 mg/mL | Concentration (wt %) (MeOAc:MeOH 70:30, 25° C.): 0.763 wt % | Concentration (MeOAc:MeOH 85:15, 25° C.): 4.51 mg/mL | Concentration (wt %) (MeOAc:MeOH 85:15, 25° C.): 0.496 wt % | Concentration (MeOAc:MeOH 100:0, 25° C.): 0.85 mg/mL | Concentration (wt %) (MeOAc:MeOH 100:0, 25° C.): 0.091 wt %

O=C(O)c1cc(/N=N/c2ccc(S(=O)(=O)Nc3ccccn3)cc2)ccc1O [Sulfasalazine, sulfasalazine]
Solubility (wt %) (EtOAc/MeOH, MeOH 0 wt %): 0.065 wt % and 0.091 wt % | Solubility (wt %) (EtOAc/MeOH, MeOH 15 wt %): 0.500 wt % | Solubility (wt %) (EtOAc/MeOH, MeOH 20 wt %): 0.430 wt % | Solubility (wt %) (EtOAc/MeOH, MeOH 30 wt %): 0.847 wt % | Solubility (wt %) (EtOAc/MeOH, MeOH 35 wt %): 0.593 wt % | Solubility (wt %) (EtOAc/MeOH, MeOH 45 wt %): 1.028 wt % | Solubility (wt %) (EtOAc/MeOH, MeOH 50 wt %): 0.497 wt % | Solubility (wt %) (EtOAc/MeOH, MeOH 60 wt %): 0.878 wt % | Solubility (wt %) (EtOAc/MeOH, MeOH 65 wt %): 0.481 wt % | Solubility (wt %) (EtOAc/MeOH, MeOH 80 wt %): 0.370 wt % | Solubility (wt %) (EtOAc/MeOH, MeOH 85 wt %): 0.532 wt % | Solubility (wt %) (EtOAc/MeOH, MeOH 100 wt %): 0.153 wt % and 0.371 wt % | Concentration (EtOAc:EtOH 0:100, 25° C.): 1.03 mg/mL | Concentration (wt %) (EtOAc:EtOH 0:100, 25° C.): 0.130 wt % | Concentration (EtOAc:EtOH 15:85, 25° C.): 1.74 mg/mL | Concentration (wt %) (EtOAc:EtOH 15:85, 25° C.): 0.22 wt % | Concentration (EtOAc:EtOH 40:60, 25° C.): 2.67 mg/mL | Concentration (wt %) (EtOAc:EtOH 40:60, 25° C.): 0.321 wt % | Concentration (EtOAc:EtOH 55:45, 25° C.): 2.89 mg/mL | Concentration (wt %) (EtOAc:EtOH 55:45, 25° C.): 0.341 wt % | Concentration (EtOAc:EtOH 70:30, 25° C.): 3.20 mg/mL | Concentration (wt %) (EtOAc:EtOH 70:30, 25° C.): 0.370 wt % | Concentration (EtOAc:EtOH 85:15, 25° C.): 2.17 mg/mL | Concentration (wt %) (EtOAc:EtOH 85:15, 25° C.): 0.246 wt % | Concentration (EtOAc:EtOH 100:0, 25° C.): 0.36 mg/mL | Concentration (wt %) (EtOAc:EtOH 100:0, 25° C.): 0.040 wt % | Solubility (wt %) (MeOAc/MeOH, MeOH 0 wt %): 0.065 wt % | Solubility (wt %) (MeOAc/MeOH, MeOH 20 wt %): 0.403 wt % | Solubility (wt %) (MeOAc/MeOH, MeOH 35 wt %): 0.482 wt % | Solubility (wt %) (MeOAc/MeOH, MeOH 50 wt %): 0.426 wt % | Solubility (wt %) (MeOAc/MeOH, MeOH 65 wt %): 0.341 wt % | Solubility (wt %) (MeOAc/MeOH, MeOH 80 wt %): 0.250 wt % | Solubility (wt %) (MeOAc/MeOH, MeOH 100 wt %): 0.153 wt % | Concentration (MeOAc:MeOH 0:100, 25° C.): 1.21 mg/mL | Concentration (wt %) (MeOAc:MeOH 0:100, 25° C.): 0.153 wt % | Concentration (MeOAc:MeOH 20:80, 25° C.): 2.22 mg/mL | Concentration (wt %) (MeOAc:MeOH 20:80, 25° C.): 0.250 wt % | Concentration (MeOAc:MeOH 35:65, 25° C.): 2.85 mg/mL | Concentration (wt %) (MeOAc:MeOH 35:65, 25° C.): 0.341 wt % | Concentration (MeOAc:MeOH 50:50, 25° C.): 3.65 mg/mL | Concentration (wt %) (MeOAc:MeOH 50:50, 25° C.): 0.426 wt % | Concentration (MeOAc:MeOH 65:35, 25° C.): 4.23 mg/mL | Concentration (wt %) (MeOAc:MeOH 65:35, 25° C.): 0.482 wt % | Concentration (MeOAc:MeOH 80:20, 25° C.): 3.63 mg/mL | Concentration (wt %) (MeOAc:MeOH 80:20, 25° C.): 0.403 wt % | Concentration (MeOAc:MeOH 100:0, 25° C.): 0.61 mg/mL | Concentration (wt %) (MeOAc:MeOH 100:0, 25° C.): 0.065 wt %
